# Ends that are not written are not given here.
# Key:
# [1] = tested on: rats; assay: rat-tail flick method of D'Amour and Smith (analgesia); assay type: in vivo; conditions: for Mean % Change ± SEM (latency, drug minus baseline) / Mean Latency ± SEM, Drug: injected into the lateral ventricle in Ringer's solution, 100 μg (morphine sulfate 10 μg)
# Experimental: In this test method, which is a standard test for analgesia, a light beam is focused on the tip of the rat's tail, and the pain threshold of the animal is measured by the latency of the rat to remove his tail from the noxious heat source. When tested by the rat-tail flick method by intracerebroventricular injection, according to the procedure of Belluzzi et al., Nature, 260, 625 (1976), the pentapeptide H-Tyr-Gly-Gly-Phe-Ser-OHproduced the effects set forth in Table I.
# *All drugs were dissolved in […] of Ringer's solution and injected into
# the lateral ventricle through permanently-indwelling cannulae.
# *Subcutaneous in saline solution.
# [2] = tested on: guinea pig ileum; conditions: literature, Hughes et al.; cited from earlier work
# [3] = tested on: mouse vas deferens; conditions: literature, Hughes et al.; cited from earlier work
# [4] = tested on: rats; conditions: injection in the brain ventricle in rats; fully reversible by naloxone; Beluzzi et al.; cited from earlier work
# [5] = tested on: opiate receptor (3H-naloxone binding) in brain homogenates; conditions: literature; cited from earlier work
# [6] = tested on: opiate receptors; assay: binding to opiate receptors in vitro; conditions: effect blocked by naloxone
# [7] = tested on: guinea pig ileum; assay: electrically-induced contraction of guinea pig ileum; conditions: effect blocked by naloxone
# From the text: Enkephalin, a natural opiate receptor agonist in brain, has been identified [see Hughes et al., Nature, 256, 577(1975)] as a mixture of two pentapeptides: H-Tyr-Gly-Gly-Phe-Met-OH (methionine-enkephalin) and H-Tyr-Gly-Gly-Phe-Leu-OH (leucine-enkephalin).
# [8] = tested on: rats; assay: rat-tail flick method of D'Amour and Smith (analgesia); assay type: in vivo; conditions: intravenous (i.v.) injection, 5 mg/kg
# [9] = rat-tail flick, 10 mg/kg subcutaneous in saline solution
Compound,"Mean % Change ± SEM (latency, drug minus baseline) ([1]; rat-tail flick)","Mean Latency ± SEM, Drug ([1]; rat-tail flick)",block of electrically evoked contractions of guinea pig ileum (in words) [2],block of electrically evoked contractions of mouse vas deferens (in words) [3],analgesia (in words) [4],inhibition of stereospecific receptor binding of 3H-naloxone (in words) [5],"pain threshold (in words) ([1]; injection into the lateral brain ventricle, significant difference versus vehicle)","Mean % Change ± SEM (latency) [1, 9]","Mean Latency ± SEM, Pentapeptide [1, 9]","analgesic effect (in words) ([1]; subcutaneous (s.c.) injection, 10 mg/kg in saline)",binding to opiate receptors in vitro (in words) [6],block of electrically-induced contraction of guinea pig ileum (in words) [7],analgesic activity (in words) [8]
"CSCC[C@H](NC(=O)[C@H](Cc1ccccc1)NC(=O)CNC(=O)CNC(=O)[C@@H](N)Cc1ccc(O)cc1)C(=O)O [Methionine-Enkephalin, H-Tyr-Gly-Gly-Phe-Met-OH]",37.2%,5.19,mimic the ability of morphine to block,mimic the ability of morphine to block,profound analgesia,inhibit,,,,,,,
CN1CC[C@]23c4c5ccc(O)c4O[C@H]2[C@@H](O)C=C[C@H]3[C@H]1C5.O=S(=O)(O)O [Morphine Sulfate],65.4%,6.59,,,,,,,,,,,
"YGGFS [H-Tyr-Gly-Gly-Phe-Ser-OH, L-Tyrosyl-Glycyl-Glycyl-L-Phenylalanyl-L-Serine]",39.25%,5.77,,,,,increase in pain threshold,26.16 ± 14.36%,5.15 ± 0.60,weak analgesic effect,weak binding,blocks,no analgesic activity
H-Tyr-Gly-Gly-Phe-Leu-OH [leucine-enkephalin],,,mimic the ability of morphine to block,mimic the ability of morphine to block,profound analgesia,inhibit,,,,,,,
